# According to patent EP0727938B1, “DEVICE AND METHOD FOR PHOTOACTIVATION” (Cerus Corporation, priority 1993, dated 1995):
# How the values were obtained:
# [1] = system: human platelets; experiment: Platelet activation: GMP140 expression measured with CD62 antibody by flow cytometry; type: cell-based; conditions: for Activation, PMA Activated, Day 3: storage Day 3, PMA 10-^7 M; for Activation, PMA Activated, Day 5: storage Day 5, PMA 10-^7 M
# Text: When platelets become activated, an alpha granule membrane glycoprotein called GMP140 becomes exposed on the platelet surface. Less than (5%) of fresh, normal unstimulated platelets express detectable GMP 140 levels by flow cytometry. See generally M.J. Metzelaar, Studies on the Expression of Activation-Markers on Human Platelets (Thesis 1991).
# To measure GMP140, a small aliquot of platelet rich plasma is placed in HEPES buffer containing a GMP140-binding antibody or control mouse IgG. CD62 is a commercially available monoclonal antibody which binds to GMP 140 (available from Sanbio, Uden, the Netherlands; Caltag Labs, So. San Francisco, CA, and Becton Dickinson, Mountain View, CA). After a fifteen minute incubation, Goat Anti-Mouse IgG conjugated to FITC is added to the tube in saturating amounts. Finally, the cells are diluted in isotonic saline, fixed with paraformaldehyde and analyzed on a FACSCAN™ (Becton Dickinson, Mountain View, CA). The positive control is made by adding Phorbol Myristate Acetate (PMA) to the test system at a final concentration of 10-^7 M.
# In this example, CD62 was employed to measure the impact, if any, of irradiation alone on platelet activation. The antibody was stored in small aliquots (0.01 mg/ml) at -40°C prior to use. A mouse IgG control (0.05 mg/ml) (Becton Dickinson, Mountain View, CA #9040) 5X concentrated was employed. At time of use, this was diluted 1:5 in HEPES buffer. The secondary antibody was goat Anti-Mouse IgG conjugated to FITC (TAGO, Burlingame, CA #3506). This was stored in small aliquots at -20°C. Phorbol Myristate Acetate (PMA) (Sigma, St. Louis, MO) was stored at -40°C. At time of use, this was dissolved in DMSO (working concentration was 1.62 X 10^-5 M).
# 16% Paraformaldehyde (PFA) (Sigma, St. Louis, MO) was prepared by adding 16 grams paraformaldehyde to 100 ml de-ionized water. This was heated to 70°C, whereupon 3 M NaOH was added dropwise until the solution was clear. The solution was cooled and the pH was adjusted to 7.4 with 1 N HCl. This was filtered and stored. A commercially available isotonic buffer was used: Hematall Isotonic Diluent (Fisher # CS 606-20).
# Following irradiation, the platelets were stored for 5 days. At specific time points, aliquots were taken and processed.
# Processing involved adding an aliquot (e.g. 5 microliters) of platelet concentrate to each microcentrifuge tube containing the antibody and appropriate reagents and this was mixed very gently by vortex. The samples were incubated for 15 minutes at room temperature.
# The Goat anti-Mouse IgG-FITC (diluted 1:10 in HEPES buffer) was added (5 microliters) to each tube and the solution was mixed by gentle vortex. The samples were incubated for an additional 15 minutes at room temperature.
# Isoton II was added (1 ml) to each tube and mixed gently with a polypropylene disposable pipette. 8% PFA in HEPES (150 microliters) was added to each diluted sample to final 1%. The platelets were analyzed on the FACSCAN™.
# Shorter Irradiation Times.
# [2] = system: viruses; conditions: 300 ug/ml of 8-MOP, one hour or more of irradiation with ultraviolet light; cited from earlier work
# [3] = non activated 8-MOP; cited from earlier work
# [4] = Photochemical breakdown measured by reverse phase HPLC; type: physicochemical; conditions: Figure 7
# [5] = system: single stranded 5S ribosomal RNA; conditions: irradiation at 4°C compared to 20°C; cited from earlier work
smiles,measurement,setting,value
"COc1c2occc2cc2ccc(=O)oc12 [8-MOP, 8-methoxypsoralen]",damage to platelets after irradiation in the presence of psoralen,"[1]; 10 ug/ml 8-MOP, five minutes UVA, 25°C, stored for 5 days",without damage to the cells
same,inactivation of viruses,[2],can effectively inactivate viruses
same,mutagenicity,[3],not mutagenic
"Cc1oc2c(C)c3oc(=O)cc(C)c3cc2c1CN [AMT, 4'-aminomethyl-4,5',8-trimethylpsoralen]",degradation (photochemical breakdown),[4],degrades more quickly than 8-MOP
"CCCCCCCCCCCCCC(=O)O[C@@H]1[C@@H](C)[C@@]2(O)[C@@H](C=C(CO)C[C@]3(O)C(=O)C(C)=C[C@@H]23)[C@@H]2C(C)(C)[C@]12OC(C)=O [PMA, Phorbol Myristate Acetate]","Activation, PMA Activated, Day 3",[1]; Control (no irradiation),85%
same,"Activation, PMA Activated, Day 5",[1]; Control (no irradiation),89%
same,"Activation, PMA Activated, Day 3",[1]; UV 5',87%
same,"Activation, PMA Activated, Day 5",[1]; UV 5',86%
same,"Activation, PMA Activated, Day 3",[1]; UV 10',84%
same,"Activation, PMA Activated, Day 5",[1]; UV 10',79%
"Cc1oc2c(C)c3oc(=O)cc(C)c3cc2c1CO [HMT, 4'-hydroxymethyl-4,5',8-trimethylpsoralen]",enhancement of covalent addition of HMT to 5S rRNA,[5],two fold
